Data as given in a compilation of properties of binary mixtures (doi:10.1016/j.molliq.2014.07.002).

Test: xn = mol fraction of the nth substance listed
Settings: 101 kPa

CC[n+]1ccn(C)c1.COS(=O)(=O)[O-] + CN1CCCC1=O
Settings | speed of sound, 298.15 K [m/s] | speed of sound, 303.15 K [m/s] | speed of sound, 308.15 K [m/s] | speed of sound, 313.15 K [m/s] | viscosity, 298.15 K [mPa·s] | viscosity, 303.15 K [mPa·s] | viscosity, 308.15 K [mPa·s] | viscosity, 313.15 K [mPa·s]
x1 = 0.0115 | 1579 | 1557 | – | 1518 | 2.22 | 1.88 | – | 1.6
x2 = 0 | 1730 | 1718 | 1707 | 1694 | 84 | 69 | 56.7 | 47.6
x2 = 0.0419 | 1724 | 1708 | 1692 | 1679 | 77 | 63 | 51.3 | 42.8
x2 = 0.0861 | 1718 | 1702 | 1685 | – | 69 | 56 | 45.9 | –
x2 = 0.2085 | 1711 | 1688 | 1663 | 1644 | 53.3 | 42.1 | 33.6 | 27.7
x2 = 0.3825 | 1700 | – | 1651 | 1632 | 35.9 | – | 21.8 | 17.7
x2 = 0.5291 | 1684 | – | 1630 | 1614 | 23.3 | – | 14 | 11.5
x2 = 0.6518 | 1663 | 1638 | – | 1593 | 14.6 | 10.8 | – | 8.2
x2 = 0.718 | 1649 | 1622 | – | 1579 | 10.5 | 8.9 | – | 6.07
x2 = 0.757 | 1639 | 1610 | 1582 | 1566 | 9.2 | 7.3 | 5.82 | 5.22
x2 = 0.8502 | – | 1589 | 1560 | 1545 | – | 4.04 | 3.61 | 3.27
x2 = 0.8983 | 1604 | 1577 | 1544 | 1528 | 4.01 | 3.11 | 2.8 | 2.56
x2 = 0.9298 | 1596 | – | 1536 | 1524 | 3.43 | – | 2.22 | 2.11
x2 = 0.9743 | 1582 | 1560 | 1534 | 1522 | 3.11 | 2.05 | 1.86 | 1.73

CN1CCCC1=O + CCCC[n+]1ccn(C)c1.[Cl-]
x1 = 1
Settings | speed of sound [m/s]
308.15 K | 1528
313.15 K | 1520

CCCC[n+]1ccn(C)c1.[Cl-] + CN1CCCC1=O
speed of sound [m/s]
Settings | 298.15 K | 303.15 K | 308.15 K | 313.15 K
x1 = 0.0138 | 1575 | 1555 | 1531 | 1527
x2 = 0 | 1874 | 1865 | 1855 | 1827
x2 = 0.01 | – | 1860 | 1848 | –
x2 = 0.0396 | 1853 | 1844 | – | –
x2 = 0.0814 | 1837 | 1829 | 1819 | 1796
x2 = 0.1986 | 1800 | 1790 | 1779 | 1760
x2 = 0.3683 | 1755 | – | – | –
x2 = 0.5125 | 1723 | – | 1688 | 1674
x2 = 0.6367 | – | 1674 | 1654 | –
x2 = 0.704 | 1670 | 1655 | – | 1623
x2 = 0.7466 | 1656 | – | 1621 | 1611
x2 = 0.8415 | 1625 | 1609 | – | –
x2 = 0.8939 | 1606 | 1588 | 1568 | 1559
x2 = 0.9254 | – | – | 1556 | 1552
x2 = 0.9721 | 1579 | 1562 | 1539 | 1536

CN1CCCC1=O + CC[n+]1ccn(C)c1.COS(=O)(=O)[O-]
x1 = 1
Settings | speed of sound [m/s] | viscosity [mPa·s]
298.15 K | 1572 | 1.66
303.15 K | 1552 | 1.49
308.15 K | 1528 | 1.39
